Results taken from patent US4499104A, “Imidazole compound, the process for its preparation, and therapeutically active compositions containing same” (priority 1976, dated 1985).

Legend:
[1] = Pulminary edema by carrageen (Sancilio method, pleural exudate); format: in vivo, Wistar-Roux-Ocefa rats; details: for ml of exudate: 30 mg/Kg, pleural cavity
Method: Using the Sancilio method (Sancilio F. L., J. Pharmacol. Exptl. Therap., 168, 199 (1969); Sancilio L. F. Rodrigues R., Proc. Soc. Exptl. Biol. Med., 123, 707 (1969); Sancilio L. F. Lawrence R., Proc. Soc. Exptl. Biol. Med., 127, 597 (1968), pulminary irritation was induced in Wistar-Roux-Ocefa rats and the capacity of chlorophenazole and other drugs to prevent production of pleural exudate was measured. 5 ml of a 0.025% carrageen solution and 0.075% Evans blue were injected into the pleurea.
The action of chlorophenazole, mepyrazole and phenylbutazone were evaluated from the quantity of exudate present in the pleural cavity after 1 and 6 hours.

[2] = Edema by carrageen (rat paw), antiedematous activity; format: in vivo, Rats of the Wistar-Roux-Ocefa stock; details: for IT (DL50/DE50): DL50/DE50, os; for ED50: Rattus norvegicus, po, os, probits method and graphically, read-out: DE50 (the source's name)
Method: (§1) A 1% physiological solution of carrageen was used. Rats of the Wistar-Roux-Ocefa stock having a weight of 150±30 g were used. The drugs were suspended in 1% carboxymethylcellulose or dissolved in distilled water and administered orally one hour before the inflammatory agent in a volume of 0.5 ml/100 g. The carrageen was adminstered subcutaneously in the subplanetary region of one of the rear paws. The volume of the paw was measured platysmagraphically initially and then after 1.5 hour, 3 hours and 5 hours after administering the carrageen. One inflammation unit was defined as the displacement of 0.01 ml of Hg.
(§2) The edema was evaluated as the difference in volume of the rear paw before and after the carrageen. The DE 50 was calculated by the probits method and graphically. The comparison drugs used were phenylbutazone and niflumic acid.

[3] = Edema by carrageen in normal and adrenoprival (suprarenectomised) rats; format: in vivo, rat; parameters: Edema by carrageen: unit not given beside the values; details: adrenoprival rats
Method: as §1, §2
To evaluate if the activity of the chlorophenazole on edema by carrageen was influenced by stimulation of the suprarenes, experiments were carried out with suprarenectomised rats. Normal rats were also compared with falsely operated rats to evaluate the influence of the operational trauma.

in vivo = details: rat, po
[4] = Action on sleep by barbiturates; format: in vivo, Wistar-Ocefa rats; details: pentobarbital sodium 40 mg/kg alone
Method: […] Loss of the redressment reflex was taken to indicate commencement of sleep. The chlorophenazone was administered orally with a dose of 1/10 of the DL50. The induction time and the duration of sleep were measured.

rats = experiment: Chronic toxicity, first experiment (60 days); format: in vivo, Wistar-Ocefa rats; details: rat, in vivo
Method: Wistar-Ocefa rats of both sexes weighing 70-90 g were used, divided into groups of 30 animals (15 males and 15 females) to a total of […].
Chlorophenazole and phenylbutazone (reference drug) were administered orally for a period of 60 days in doses of 30-60 mg/kg of chlorophenazole and 8-160 mg/kg of phenylbutazone (first experiment) and for a period of 5 months in doses of 6-12 mg/kg of chlorophenazole and 16 mg/kg of phenylbutazone (second experiment).
The following parameters were determined periodically: behavior, general state, food consumption, body weight, red blood cell number, white blood cell number, leucocite formula, hemoglobin, hematocrit, globular value, total proteins, glycemia, azotemia, cholesterol, total lipids, triglycerides, creatinine, GOT, GPT, urine analysis. At the end of the experiment the animals were sacrificed, their general state was observed, the following organs were weighed: liver, spleen, kidneys, supranenes, ovary and testicles, lungs, heart, stomach.

COc1cc(C)nc(-n2nc(C)cc2OC)n1 [Mepyrazole]
ml of exudate [1]: 4.38 mL

O=C(O)c1cccnc1Nc1cccc(C(F)(F)F)c1 [Niflumic acid]
Δ Volume of the inflamed paw ([2]; 10 mg/kg oral, 1.5 hours): 25 UPI
Δ Volume of the inflamed paw ([2]; 10 mg/kg oral, 3 hours): 51 UPI
Δ Volume of the inflamed paw ([2]; 10 mg/kg oral, 5 hours): 80 UPI
Δ Volume of the inflamed paw ([2]; 20 mg/kg oral, 1.5 hours): 20 UPI
Δ Volume of the inflamed paw ([2]; 20 mg/kg oral, 3 hours): 35 UPI
Δ Volume of the inflamed paw ([2]; 20 mg/kg oral, 5 hours): 56 UPI
Δ Volume of the inflamed paw ([2]; 40 mg/kg oral, 1.5 hours): 18 UPI
Δ Volume of the inflamed paw ([2]; 40 mg/kg oral, 3 hours): 33 UPI
Δ Volume of the inflamed paw ([2]; 40 mg/kg oral, 5 hours): 49 UPI
IT (DL50/DE50) [2]: 11.40
ED50 [2]: 7 mg/kg
Edema by carrageen ([3]; 10 mg/kg, 1.5 hours): 25
Edema by carrageen ([3]; 10 mg/kg, 3 hours): 34
Edema by carrageen ([3]; 20 mg/kg, 1.5 hours): 20
Edema by carrageen ([3]; 20 mg/kg, 3 hours): 24
Edema by carrageen ([3]; 40 mg/kg, 1.5 hours): 19
Edema by carrageen ([3]; 40 mg/kg, 3 hours): 30
LD50 (in vivo): 30 mg/kg

CCCC(C)C1(CC)C(=O)NC(=O)NC1=O (stereo not shown) [Pentobarbital sodium, reference compound]
Induction time [4]: 4.4 min
Sleeping time [4]: 49.1 min

CCCCC1C(=O)N(c2ccccc2)N(c2ccccc2)C1=O [Phenylbutazone]
Δ Volume of the inflamed paw ([2]; 10 mg/kg oral, 1.5 hours): 28 UPI
Δ Volume of the inflamed paw ([2]; 10 mg/kg oral, 3 hours): 65 UPI
Δ Volume of the inflamed paw ([2]; 10 mg/kg oral, 5 hours): 88 UPI
Δ Volume of the inflamed paw ([2]; 20 mg/kg oral, 1.5 hours): 26 UPI
Δ Volume of the inflamed paw ([2]; 20 mg/kg oral, 3 hours): 59 UPI
Δ Volume of the inflamed paw ([2]; 20 mg/kg oral, 5 hours): 74 UPI
Δ Volume of the inflamed paw ([2]; 40 mg/kg oral, 1.5 hours): 24 UPI
Δ Volume of the inflamed paw ([2]; 40 mg/kg oral, 3 hours): 51 UPI
Δ Volume of the inflamed paw ([2]; 40 mg/kg oral, 5 hours): 73 UPI
IT (DL50/DE50) [2]: 23.40
ED50 [2]: 15 mg/kg
ml of exudate [1]: 3.12 mL
activity on pleural exudate ([1]; exudate after 1 and 6 hours): significantly active
cholesterol (rats): the same for cholesterol at the larger doses
stomach appearance (rats): contract and pale
LD50 (in vivo): 351 mg/kg
